# Measured values: patent US4788206A, “Pentadieneamides” (Hoffmann-La Roche Inc., priority 1987, dated 1988)
# Legend:
# [1] = tested on: PAF-Induced Platelet Count Decrease; assay: PAF Induced Platelet Count Decrease; format: in vivo, guinea pig; conditions: Cavia porcellus, Platelet; 3 mg/Kg (route not given); read-out: Percent Inhib. of PAF-Induced Platelet Count Decrease, 3 mg/Kg
# Experimental: PAF Induced Platelet Count Decrease
# Male Hartley guinea pigs weighing between 500 and 900 grams were fed standard guinea pig chow and tap water ad libitum. PAF was solubilized in ethanol and stored as a 2 mM stock solution at -70° C. The stock solutuion of PAF was diluted to 1 pM in Tris buffer pH 7.4 and 0.1% BSA for all experiments.
# (a) Intravenous Procedure
# Guinea pigs were anesthetized with urethane (1.6 g/kg, i.p.). A catheter (PE50) was introduced into the right carotid artery for withdrawing blood. A second catheter PE10) was introduced into the jugular vein for injecting drugs and for administering the PAF challenge (75 ng/kg, i.v.). A control blood sample was obtained and platelets were counted in a whole blood platelet analyzer. PAF was then given and blood samples were taken 15, 30, and 60 seconds after the challenge for platelet counts. Fifteen minutes later, selected concentrations of the test compound were solubilized in DMSO and injected intravenously into a group of 4-6 animals. Only one concentration of antagonist was used in each animal group. Fifteen minutes after drug injection, blood smaples were taken before and 15, 30, and 60 sec after the PAF challenge, and analyzed for platelet number.
# Animals were anesthetized with sodium pentobarbital (35 mg/kg. i.p.) and the caritoid artery and jugular vein were cannulated as described above. The cannulae were exteriorized at the base of the neck and the animals were allowed to recover. At least 18 hours after surgery, conscious unrestrained guinea pigs were used in the experiment. The animals were challenged two time with PAF (120 ng/kg. i.v.); the first to establish a consistent response to PAF and the second to serve as a control for the PAF challenge. Blood samples were taken before and 15, 30, and 45 seconds after PAF challenge and platelets were counted. Thirty minutes after the control PAF challenge, the animal were orally dosed with either gum acacia or the test compound. Animals were then challenged with PAF at 1, 3, 5, and 24 hours after the administration of the drug.
# Data Analysis and Statistics
# The % change, i.e., the difference in platelet number before and after PAF challenge was calculated by: [formula]
# Statistical significance (p<0.05) of the difference between the mean PAF control and mean drug treated activity was determined with paried Students's t-test.
# [2] = tested on: PAF-Induced Bronchoconstriction; assay: PAF Induced Bronchoconstriction Assay; format: in vivo, guinea pig; conditions: for inhibition in vivo at 50 mg/kg: Cavia porcellus, po, 50 mg/Kg p.o., 2-hour pretreatment, read-out: Percent Inhib. of PAF-Induced Bronchoconstriction, 50 mg/Kg p.o.; for Percent Inhib. of PAF-Induced Bronchoconstriction, mg/Kg i.v.: i.v. (dose not given), 1 minute pretreatment, PAF 1.0 μg/kg i.v.
# Summary of the method: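 Male Hartley guinea pigs, urethane-anesthetized (2 g/kg i.p.), ventilated, with succinylcholine 1.2 mg/kg i.v. and propranolol 0.1 mg/kg i.v. pretreatment. Compound given i.v. 1 min or by oral gavage 2 h before i.v. PAF challenge at 1.0 μg/kg. Peak tracheal pressure rise over baseline compared with control mean gives % inhibition.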
# [3] = target: T1, PAF Binding, dog platelets (Canis lupus familiaris, UniProt A0A8I3NSH0); assay: PAF Binding Assay (inhibition of 3H-PAF binding to washed dog platelets); conditions: dog platelets, 3H-PAF, 10 minutes at room temperature; read-out: Inhib of PAF Binding IC50
# T1 construct: Washed platelets were prepared by resuspending the platelet pellet once with PBS containing 1 mM EDTA; from tissue; host or cells: washed platelets from dog blood
# T1 sequence (A0A8I3NSH0 1-343): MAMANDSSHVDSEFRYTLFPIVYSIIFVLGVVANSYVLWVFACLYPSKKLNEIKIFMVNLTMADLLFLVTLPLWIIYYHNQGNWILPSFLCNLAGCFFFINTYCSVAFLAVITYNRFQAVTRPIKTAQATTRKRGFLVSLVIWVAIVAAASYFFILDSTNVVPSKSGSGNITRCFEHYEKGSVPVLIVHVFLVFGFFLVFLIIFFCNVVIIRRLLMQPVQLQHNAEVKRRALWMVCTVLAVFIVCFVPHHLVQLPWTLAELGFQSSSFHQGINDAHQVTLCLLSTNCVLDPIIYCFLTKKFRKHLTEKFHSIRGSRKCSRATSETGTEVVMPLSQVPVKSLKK
# Summary of the method: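 Washed dog platelets (2×10^7 per tube, in 0.1% BSA-PBS) incubated 10 min at room temperature with 3H-PAF and test analogs. Bound ligand separated by 1 min centrifugation through silicone oil; platelet pellet radioactivity counted by liquid scintillation.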
SMILES,inhibition in vivo at 3 mg/kg [1] [%],inhibition in vivo at 50 mg/kg [2] [%],"Percent Inhib. of PAF-Induced Bronchoconstriction, mg/Kg i.v. [2] [%]",IC50 [3] [nM]
"COc1cccc(C(=C/C=C/C(=O)N[C@H](C)CCCc2cccnc2)c2cccc(OC)c2)c1 [[R-(E)]-5,5-bis (3-methoxyphenyl)-N-[1-methyl-4-(3-pyridinyl)butyl]-2,4-pentadienamide]",31,87 ± 8,87 ± 4,35
"COc1cccc(C(=C/C=C/C(=O)N[C@@H](C)CCCc2cccnc2)c2cccc(OC)c2)c1 [[S-(E)]-5,5-bis(3-methoxyphenyl)-N-[1-methyl-4-(3-pyridinyl)butyl]-2,4-pentadienamide]",10,10 ± 5,36 ± 4,300
